Residues, ends and D or L forms follow the SMILES beside them. *: point of attachment. Cbz = O=C(OCc1ccccc1)*; CH2F = FC*
Tests used:
RIPK1 = assay: ELISA of RIPK1 released in supernatant of L929 cells exposed to TNFα; type: cell-based, murine; details: 20 μM, 2 h, then TNFα (25 ng/mL) 6 h
Procedure: FIG. 12. […] Results are shown as mean±SEM of six replicates.
L929 cells (LGC Standards, Molsheim, France), were cultured in Dulbecco's modified Eagle's medium (DMEM) (ThermoFisher, Massachusetts, USA) supplemented with 10% fetal bovine serum (Eurobio, Courtaboeuf, France), penicillin (100 IU/ml), streptomycin (0.1 mg/ml), and L-glutamine (0.03%) (ThermoFisher). […] AML-12 (alpha mouse liver-12) hepatocytes (LGC Standards) were cultured in DMEM/F12 Medium (ThermoFisher) supplemented with 10% fetal bovine serum (Eurobio), 10 μg/ml insulin, 5.5 μg/ml transferrin, 5 ng/ml selenium and 40 ng/ml dexamethasone (Sigma, Missouri, USA). AML-12 hepatocytes were stimulated with insulin (#I0516, 10 nM; Sigma) for 15 minutes.
Protein concentrations of human RIPK1 (SEE640Hu; Could-Clone Corp., Texas, USA), human MLKL (SER645Hu; Could-Clone Corp.) and murine RIPK1 (CSB-EL019735MO; Cusabio, Texas, USA) were determined by an ELISA kit according to the manufacturer's instructions.

[1] = system: primary human hepatocytes; assay: Fat depletion in primary human hepatocytes with free fatty acid-induced steatosis; type: cell-based; details: 20 μM, 24 h
Procedure: FIG. 7. RIPA-56 treatment induces fat depletion in primary human hepatocytes. Primary human hepatocytes were isolated from steatotic human livers of patients with NAFLD (n=5) (A-C) or from non-steatotic human livers and incubated with free fatty acids to induce steatosis or without (W/O) (n=5) (D-G), and treated with RIPA-56 (20 μM) or DMSO (vehicle) for 24 h. (A, D) Representative Oil Red-O and DAPI images; (B, E) Quantification of Oil Red-O staining normalized for the number of DAPI-stained nuclei; (C, F) Quantification of intracellular triglycerides normalized to protein content; (G) mRNA levels of CPT1A, MTTP and APOB100 were assessed by RT-qPCR, and shown relative to DMSO-treated hepatocytes. Results are shown as mean±SEM; n.s., not significant; *p<0.05; **p<0.01; scale bars, 100 μm. These findings are representative of five independent cell preparations.
FIG. 9. MLKL controls intrahepatic triglyceride content in hepatocytes. (A-D) Primary human hepatocytes were isolated from non-steatotic human livers and incubated with free fatty acids to induce steatosis, or without (W/O), and treated with necrosulfonamide (NSA) (20 μM) or DMSO (vehicle) for 24 h. (A) Representative Oil Red-O and DAPI images; (B) Quantification of Oil Red-O staining normalized for the number of DAPI-stained nuclei; (C) Quantification of intracellular triglycerides normalized to protein content. (D) mRNA levels of CPT1A, MTTP and APOB100 were assessed by RT-qPCR and shown relative to DMSO-treated hepatocytes; (E-H) AML-12 cells were knocked-out (KO) for MLKL and compared with control (CTL) cells, which underwent a similar CRISPR-Cas9 selection as KO cells; (E) Whole-cell lysates were extracted from CTL and MLKL-KO AML-12 cells and analyzed by Western blot using antibodies against MLKL, Tubulin and GAPDH; (F) Representative Oil Red-O and DAPI images; (G) Oil Red-O staining and (H) triglycerides quantification in fat-loaded cell lines. Results are shown as mean±SEM; n.s., not significant; *p<0.05; **p<0.01; ***p<0.001; scale bars, 100 μm. These experiments are representative of five independent cell preparations.
The liver fragment was initially perfused with a prewarmed (37° C.) calcium-free buffer supplemented with 5 mmol/L ethylene glycol tetra-acetic acid (Sigma) followed by perfusion with a prewarmed (37° C.) buffer containing 6 mmol/L calcium (CaCl2) and collagenase 0.05% ([…]) (Sigma). The liver fragment was then gently shaken to disperse liver cells in Hepatocyte Wash Medium (Life Technologies, Villebon-sur-Yvette, France). The resulting cell suspension was filtered through a gauze-lined funnel. Cells were then centrifuged at low speed. The supernatant, containing damaged or dead hepatocytes, non-parenchymal cells and debris were removed and pelleted hepatocytes were re-suspended in Hepatocyte Wash Medium. The count of viable cells was determined using trypan blue exclusion. Freshly isolated normal (steatosis <5%) or steatotic (>10%) hepatocytes were resuspended in Williams medium E (Life technologies) containing 10% fetal calf serum (Eurobio), penicillin (200 U/mL)-streptomycin (200 μg/mL), Fungizone (2.5 μg/mL) and insulin (0.1 U/mL) (Life Technologies). The cells were seeded in 12-, 24- and 96-well plates pre-coated with type I collagen at a density of 0.78×10^6, 0.4×10^6 and 0.5×10^5 viable cells/well, respectively, and incubated overnight at 37° C. in a 5% CO2 atmosphere. The medium was replaced with fresh complete hepatocyte medium supplemented with 1 μmol/L hydrocortisone hemisuccinate (Laboratoires SERB, Paris, France) and hepatocytes were maintained in this medium. To induce steatosis in normal hepatocytes, PHH were incubated with free fatty acid (FFA) mixtures of oleic acid and palmitic acid in a molar ratio 2:1 (500:250 μmol/L), respectively, and with 1% fatty-acid-free BSA for 48 hours.
Total RNA was purified from liver tissue using TRIzol reagent (ThermoFisher) and a RNeasy Mini kit (Qiagen, Courtaboeuf, France). […]

Molecule | RIPK1 in the supernatant (RIPK1) | intracellular lipid droplets (Oil Red-O) ([1]; FFA-induced steatosis) | intracellular triglyceride content ([1]; FFA-induced steatosis) | CPT1A expression (mRNA) ([1]; RT-qPCR)
COC(=O)C[C@H](NC(=O)[C@H](C)NC(=O)[C@@H](NC(=O)OCc1ccccc1)C(C)C)C(=O)CF [Zvad] (Cbz-Val-Ala-Asp(OMe)-CH2F) | released |  |  | 
necrostatin-1 [Nec-1] | undetectable |  |  | 
COc1nccnc1NS(=O)(=O)c1ccc(NC(=O)/C=C/c2ccc([N+](=O)[O-])s2)cc1 [necrosulfonamide, reference compound] |  | significantly decreased | significantly decreased | upregulated
